According to patent US6828450B2, “Triptycene analogs” (Kansas State University Research Foundation, priority 2000, dated 2004):
Values joined by “and” are separate entries in the source; they are usually repeats but may differ in a detail not shown here. Equal values may be shown once.

How the values were obtained:
L1210 cells [1] = assay: DNA cleavage (intact chromatin precipitation) in L1210 cells; assay type: cell-based, murine
Experimental: FIG. 19. Comparison of the concentration-dependent effects of novel TT analogs and known DNA-damaging anticancer drugs on DNA cleavage in L1210 cells in vitro. […] After lysing the cells in HLB containing 0.2% Triton X-100, the detergent-soluble DNA fragments present in the supernatants and the intact chromatin DNA remaining in the pellets were separated by centrifugation and their radioactivity estimated by LSC. Results are expressed as [cpm in supernatant/cpm in supernatant+pellet]×100 at 24 h. For untreated controls (5.3±0.6% DNA fragmentation; striped area), the supernatant is 741±79 cpm and the pellet is 13,293±1,446 cpm.
FIG. 20. Comparison of the abilities of novel TT analogs to induce DNA cleavage in L1210 cells in vitro. Cells containing prelabeled DNA were incubated at 37° C. for 24 h in the presence or absence (control) of 7 μM concentrations of the indicated compounds. The protocol of the experiment and the determination of the results were identical to those of FIG. 12.
FIG. 22. Irreversibility of the effects of novel TT analogs and known DNA-damaging anticancer drugs on DNA cleavage in L1210 cells in vitro. Cells containing prelabeled DNA were incubated at 37° C. for various periods of time in the presence or absence (control) of 10 μM TT1 or TT2 and 1.6 μM DAU or CPT. The protocol of the experiment and the determination of the results at 24 h were identical to those of FIG. 19, except that the drugs were either maintained in the medium for the whole 24-h period of incubation (open) or removed after the first 3 (striped) and 8 h (closed). After spinning and washing the appropriate samples to remove the drugs, cells were resuspended in 0.5 ml of fresh medium to complete the 24-h period of incubation in the absence of drugs. Vehicle-treated controls were similarly spun and washed at 3 and 8 h. Bars: means±SD (n=3).
Drug-induced DNA cleavage was determined by intact chromatin precipitation, using L1210, HL-60-S, HL-60-RV and HL-60-R8 cells which were prelabeled with 1 μCi of ^3H-thymidine for 2 h at 37° C., washed with 3×1 ml of ice-cold PBS, collected by centrifugation, and resuspended in fresh FCS-containing RPMI 1640 medium at a density of about 1×10^6 cells/0.5 ml for L1210 and 0.5×10^6 cells/0.5 ml for HL cells. Except when otherwise specified, such cells containing prelabeled DNA were then exposed for 24 h to TTs and drugs known to induce DNA fragmentation. After centrifugation at 200×g for 10 min to discard the drugs and wash the cells, the intact cell pellets were lysed for 30 min in 0.5 ml of HLB, centrifuged at 12,000×g for 30 min to collect the supernatants, and resuspended in 0.5 ml of HLB. After another similar centrifugation, the radioactivities in the pooled supernatants (detergent-soluble low molecular weight DNA fragments) and the pellet (intact chromatin DNA) were determined by LSC: % DNA fragmentation=[cpm in supernatant/cpm in supernatant+pellet]×100. Before being counted in 6 ml of Bio-Safe NA, the intact pelleted chromatin was incubated for 2 h at 60° C. in the presence of 0.6 ml of NCS tissue solubilizer (Amersham).

L1210 cells [2] = assay: cells; details: for inhibitory effect on L1210 cell viability: 256 nM, 4 days; for IC50: read-out: IC50 (concentration inhibiting by 50% the viability of L1210 leukemic cells), day 4, Table 2 series
Experimental: (§1) FIG. 1. […] For tumor cell growth and viability, L1210 cells were respectively seeded in triplicate at initial densities of 1×10^4 and 1.11×10^4 cells/0.5 ml/well in RPMI 1640 medium containing 7.5% FCS and penicillin (100 IU/ml)-streptomycin (100 μg/ml), and grown for 4 days in the presence or absence (control) of 256 nM concentrations of the indicated compounds in a humidified incubator at 37° C. with 5% CO2 in air. Cell density was monitored using a Coulter counter. […] The ability of viable cells/0.5 ml to bioreduce 0.1 ml of MTS:PMS (20:1) reagent over a 3-h incubation period at 37° C. was assessed by measuring the absorbamce of the water-soluble formazan products at A490 nm.
FIG. 4. […] Cells were seeded in triplicate at initial densities of 100,000 or 11,100 cells/0.5 ml/well and respectively incubated for 2 or 4 days in the presence or absence (control) of the indicated concentrations of drugs, which are plotted on a logarithmic scale. The ability of viable cells/0.5 ml to bioreduce 0.1 ml of MTS:PMS (20:1) reagent over a 3-h incubation period was assessed as described in FIG. 1.
(§2) TT0 was purchased from Aldrich (Milwaukee, Wis.). All solutions of synthetic TTs and tricyclic pyrone H10, vincristine (VCR; a gift from Lilly Researeh Laboratories, Indianapolis, Ind.) and camptothecin (CPT; from Sigma Chemical Co., St Louis, Mo.) were dissolved and diluted in dimethyl sulfoxide (DMSO), whereas daunomycin (DAU) (from Sigma) solutions were prepared in 0.1 M potassium phosphate buffer, pH 7.4, containing 0.9% NaCl. Suspension cultures of murine L1210 lymphocytic leukemia cells (American Type Culture Collection, Rockville, Md.) were maintained in continuous exponential growth by twice-a-week passage in RPMI 1640 medium supplemented with 7.5% fortified bovine calf serum (FCS; HyClone Laboratories, Logan, Utah) and penicillin (100 IU/ml)-streptomycin (100 μg/ml), and incubated in the presence or absence of drugs at 37° C. in a humidified atmosphere containing 5% CO2. […] Control cells incubated in the absence of drugs were similarly treated with vehicle only and, in every experiment, all incubates received the same volume of solvent. For drug removal, incubates were spun at 200×g for 10 min, drug-containing supernatants were discarded, and intact cells were washed thrice with 1 ml of the above RPMI 1640 culture medium and resuspended in 0.5 ml of fresh medium for further incubation.
L1210, HL-60-S, HL60-RV and HL-60-R8 cells suspended in FCS-containing RPMI 1640 medium were grown in 48-well Costar cell culture plates for up to 4 days in the presence or absence of drugs to evaluate drug cytotoxicity.

L1210 cells [3] = assay: L1210 tumor cell proliferation assay (Coulter counter); details: for inhibitory effect on L1210 cell growth: 256 nM, 4 days
Experimental: as §1
FIG. 3. […] The protocol of the experiment was identical to that of FIG. 1. […] Drug concentrations are plotted on a logarithmic scale.
as §2
For tumor cell growth, L1210 cells were resuspended in fresh FCS-containing RPMI 1640 medium, plated at an initial density of 1×10^4 cells/0.5 ml, and incubated in 48-well Costar cell culture plates (Costar, Cambridge, Mass.). Except when otherwise specified, cells were grown for 4 days in the presence or absence of drugs and their density was monitored every 24 h using a Coulter counter (Coulter Electronics, Luton Beds, UK).

[4] = target: Malaria protease plasmepsin II (Plasmodium falciparum, UniProt P46925); assay: Inhibition of malaria protease plasmepsin II; assay type: biochemical
[5] = test system: Plasmodium falciparum 3D7; assay: Antimalarial activity, inhibition of Plasmodium falciparum 3D7; assay type: cell-based; details: malaria strain 3D7
[6] = Water solubility (stated in words); assay type: physicochemical
L1210 cells [7] = assay: Mitotic index of L1210 cells; assay type: cell-based, murine; details: 24-h treatment; 0.2 μM VCR, 1 μM H10 (FIG. 18)
Experimental: FIG. 18. Effects of the novel TT analog TT2 and DAU on the mitotic index of L1210 cells in vitro. […] Cells (10^6/0.5 ml of RPMI 1640 medium) were incubated in triplicate for 24 h at 37° C. in the presence or absence (control) of 0.256, 0.64, 1.6 and 4 μM TT2, 0.256, 0.64 and 1.6 μM DAU, 0.2 μM VCR or 1 μM H10. After fixation with MeOH:acetic acid (3:1) and staining with 0.1% crystal violet, about 500 cells/slide were scored for mitotic figures and the mitotic index was expressed as the % of mitotic cells in drug-treated cultures divided by the % of mitotic cells in non-treated controls. The mean % of mitotic cells in control at 24 h was 1.86±0.43%.
L1210 cells (about 1×10^6/0.5 ml of FCS-containing RPMI 1640 medium) were incubated in triplicate for 24 h at 37° C. in the presence or absence of TTs or known antimitotic drugs, and collected by centrifugation at 200×g for 10 min to determine their mitotic index. For hypotonic treatment, cells were resuspended in 1 ml of 75 mM KCl for 20 min at 4° C. After fixation in 1 ml of MeOH:acetic acid (3:1), the final cell pellets were collected by centrifugation, resuspended in 75 μl of MeOH:acetic acid (3:1), dispensed onto glass slides, air dried, and stained by spreading 40 μl of 0.1% crystal violet under a coverslip. The % of cells in mitosis was determined microscopically by counting 500 cells/slides. The mitotic index was calculated as the % of mitotic cells in drug-treated cultures divided by the % of mitotic cells in non-treated controls.

Sequence of Malaria protease plasmepsin II (P46925 125-453): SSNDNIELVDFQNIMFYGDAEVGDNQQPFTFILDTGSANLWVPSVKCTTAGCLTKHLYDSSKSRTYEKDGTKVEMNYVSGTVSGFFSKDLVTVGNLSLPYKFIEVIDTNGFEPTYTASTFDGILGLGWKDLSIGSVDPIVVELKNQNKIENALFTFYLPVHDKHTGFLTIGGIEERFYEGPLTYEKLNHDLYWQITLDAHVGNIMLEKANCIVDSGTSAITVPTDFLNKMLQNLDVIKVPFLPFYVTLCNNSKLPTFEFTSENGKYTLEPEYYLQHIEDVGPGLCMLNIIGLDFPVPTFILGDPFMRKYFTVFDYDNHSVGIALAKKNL

9,10-Dihydro-9,10-[1′,2′]benzenoanthracene-1,4,5,8-tetraone [TT1]
DNA fragmentation at 24 h after short exposure (L1210 cells [1]; 10 μM, drug removed after 3 and 8 h): 36-45% | DNA cleavage (% DNA fragmentation) (L1210 cells [1]; 10 μM, whole 24 h): 45% and 40%

COC(=O)C1=CC(=O)[C@H]2C3c4ccccc4C(c4c(OC)ccc(OC)c43)[C@H]2C1=O (relative stereo) [TT10, (4aS*,9aR*)-5,8-Dimethoxy-2-methoxycarbonyl-4a,9,9a,10-tetrahydro-9,10-[1′,2′]benzenoanthracene-1,4-dione]
inhibitory effect on L1210 cell viability (L1210 cells [2]): weak | inhibitory effect on L1210 cell growth (L1210 cells [3]): weak

COC(=O)[C@@]12C(=O)C=CC(=O)[C@@H]1C1c3ccccc3C2c2c(OC)ccc(OC)c21 (relative stereo) [TT11, (4aR*,9aR*)-5,8-Dimethoxy-4a-methoxycarbonyl-9,9a,10-trihydro-9,10-[1′,2′]benzenoanthracene-1,4-dione]
inhibitory effect on L1210 cell viability (L1210 cells [2]): marginal | DNA cleavage (% DNA fragmentation) (L1210 cells [1]; 7 μM, 24 h, control 5%): 7% | inhibitory effect on L1210 cell growth (L1210 cells [3]): marginal

CC[C@@]1(O)C(=O)OCc2c1cc1n(c2=O)Cc2cc3ccccc3nc2-1 [CPT, camptothecin, reference compound]
DNA cleavage (% DNA fragmentation) (L1210 cells [1]; 1.6 μM, 24 h): 57% | DNA fragmentation at 24 h, drug maintained or removed (L1210 cells [1]; 1.6 μM, maintained or removed after 3 or 8 h): 51-58% | Emax (L1210 cells [1]; Mus musculus, L1210, concentrations of CPT higher than 1.6 μM, 24 h, read-out: DNA cleavage, plateau of maximal stimulation): 60 to 70%

CC(C)(C)OC(=O)CCNC1=C(Br)C(=O)C2=C(C1=O)C1C3=C(C(=O)C=CC3=O)C2c2ccccc21 (stereo not drawn) [Compound 12, 2-Bromo-3-[2-(t-butoxycarbonyl)ethylamino]-9,10-dihydro-9,10-[1,2]benzenoanthracene-1,4,5,8-tetraone]
IC50 (L1210 cells [2]): 310 nM

O=C(O)CCNC1=C(Br)C(=O)C2=C(C1=O)C1C3=C(C(=O)C=CC3=O)C2c2ccccc21 (stereo not drawn) [Compound 13, N-(2-Bromo-9,10-dihydro-1,4,5,8-tetraoxo-9,10-[1,2]benzenoanthracene-3-yl)-3-aminopropanoic acid]
IC50 (L1210 cells [2]): 1480 nM

c1ccc2c(c1)C1c3ccccc3C2c2ccccc21 [TT0, triptycene]
activity against macromolecule synthesis and growth of L1210 cells (L1210 cells [3]; in vitro): inactive

COC1=C(Br)C(=O)C2=C(C1=O)C1C3=C(C(=O)C=CC3=O)C2c2ccccc21 (stereo not drawn) [TT13, 2-Bromo-3-methoxy-9,10-dihydro-9,10-[1′,2′]benzenoanthracene-1,4,5,8-tetraone]
IC50 (L1210 cells [2]): 291 nM

CNC1=C(Br)C(=O)C2=C(C1=O)C1C3=C(C(=O)C=CC3=O)C2c2ccccc21 (stereo not drawn) [TT14, 2-Bromo-3-(methylamino)-9,10-dihydro-9,10-[1′,2′]benzenoanthracene-1,4,5,8-tetraone]
IC50 (L1210 cells [2]): 430 nM | IC50 [4]: 9700 nM | IC50 [5]: 4700 nM

CCOC(=O)CCNC1=C(Br)C(=O)C2=C(C1=O)C1C3=C(C(=O)C=CC3=O)C2c2ccccc21 (stereo not drawn) [TT17, 2-Bromo-3-[2-(ethoxycarbonyl)ethylamino]-9,10-dihydro-9,10-[1′,2′]benzenoanthracene-1,4,5,8-tetraone]
IC50 (L1210 cells [2]): 240 nM

O=C(O)CCNC1=C(O)C(=O)C2=C(C1=O)C1C3=C(C(=O)C=CC3=O)C2c2ccccc21 (stereo not drawn) [TT21]
water solubility [6]: water soluble

CC[C@]1(O)C[C@H]2CN(CCc3c([nH]c4ccccc34)[C@@](C(=O)OC)(c3cc4c(cc3OC)N(C=O)[C@H]3[C@@](O)(C(=O)OC)[C@H](OC(C)=O)[C@]5(CC)C=CCN6CC[C@]43[C@@H]65)C2)C1 [VCR, vincristine, reference compound]
increase in the mitotic index (L1210 cells [7]): 16 fold

CC(C)c1nc(CN(C)C(=O)N[C@H](C(=O)N[C@@H](Cc2ccccc2)C[C@H](O)[C@H](Cc2ccccc2)NC(=O)OCc2cncs2)C(C)C)cs1 [ritonavir, reference compound]
IC50 ([5]; Plasmodium falciparum): 9700 nM
